Reference: ChEMBL document CHEMBL5131488, “Design and synthesis of pyrido[2,3-d]pyrimidine derivatives for a novel PAC1 receptor antagonist” (Eur J Med Chem, 2022)
≈ marks a conversion by molar mass, not a printed value. Calls of active or inactive are those of the source. The calls are words filed in the database; no cut-off is given here.

What was measured:
[1] = molecular target: T1, Pituitary adenylate cyclase-activating polypeptide type I receptor (Homo sapiens, UniProt P41586); experiment: Antagonist activity at PAC-1 receptor (unknown origin) expressed in CHO cells assessed as inhibition of PACAP-induced CREB phosphorylation at 1 nM pretreated for 30 mins followed by PACAP stimulation for 30 mins by western blot analysis; format: cell-based; conditions: filed as antagonist, time 60.0 min
Target sequence in this assay (P41586 21-468 limits assumed): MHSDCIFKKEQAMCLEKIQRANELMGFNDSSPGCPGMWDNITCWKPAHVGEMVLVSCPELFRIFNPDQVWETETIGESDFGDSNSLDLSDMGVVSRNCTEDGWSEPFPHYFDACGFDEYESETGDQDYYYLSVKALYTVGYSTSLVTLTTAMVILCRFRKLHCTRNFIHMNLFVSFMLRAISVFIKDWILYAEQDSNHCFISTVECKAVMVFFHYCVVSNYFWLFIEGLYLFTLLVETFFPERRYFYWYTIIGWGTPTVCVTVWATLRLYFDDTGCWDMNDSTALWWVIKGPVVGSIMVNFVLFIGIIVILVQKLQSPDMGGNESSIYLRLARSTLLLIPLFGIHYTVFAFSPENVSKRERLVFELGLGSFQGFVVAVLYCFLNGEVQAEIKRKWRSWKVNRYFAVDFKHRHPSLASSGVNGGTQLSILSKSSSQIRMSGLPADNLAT

Mus musculus [2] = experiment: Inhibition of PACAP-induced aversive behaviour in it dosed ddY mouse administered as single dose and measured for 30 mins; format: functional, organism-based; conditions: dose 10-100 pmol, DDE = dose-dependent effect
[3] = molecular target: T1, Pituitary adenylate cyclase-activating polypeptide type I receptor; experiment: Antagonist activity at PAC-1 receptor (unknown origin) expressed in CHO cells assessed as inhibition of PACAP-induced increase in intracellular cAMP level pretreated for 30 mins followed by PACAP stimulation measured after 1 hr by cAMP-Glo assay; format: cell-based; conditions: for Activity: filed as antagonist, time 90.0 min, DDE = dose-dependent effect
Mus musculus [4] = experiment: Antiallodynic activity in ddY mouse assessed as inhibition of PACAP-evoked mechanical allodynia at 10 to 100 pmol administered via IT as single dose and measured after 14 days; format: functional, organism-based; conditions: dose 10-100 pmol, time 14.0 day
Mus musculus [5] = experiment: Antiallodynic activity in ddY mouse assessed as inhibition of spinal nerve ligation-evoked mechanical allodynia at 10 pmol administered via IT as single dose and measured after 3 hrs; format: functional, organism-based
Mus musculus [6] = experiment: Antiallodynic activity in ddY mouse assessed as inhibition of spinal nerve ligation-evoked mechanical allodynia at 10 pmol administered via IT as single dose and measured after 2 to 4 hrs; format: functional, organism-based; conditions: time 2-4 hrs
[7] = Aqueous solubility of the compound in phosphate buffered saline at 100 uM at pH 7.4 by HPLC analysis; format: physicochemical
[8] = Permeability of the compound across apical to basolateral side in human Caco-2 cells at 25 uM incubated for 2 hrs by LC/MS/MS analysis; format: ADME, cell-based; conditions: read-out: permeability
[9] = Metabolic stability in human liver microsomes assessed as parent compound remaining in presence of NADPH at 0.5 uM measured after 10 mins by LC-MS/MS analysis; format: ADME, Microsome; conditions: read-out: Stability
[10] = Metabolic stability in mouse liver microsomes assessed as parent compound remaining in presence of NADPH at 0.5 uM measured after 10 mins by LC-MS/MS analysis; format: ADME, Microsome; conditions: read-out: Stability
[11] = Metabolic stability in human liver microsomes assessed as parent compound remaining in presence of NADPH at 0.5 uM measured after 60 mins by LC-MS/MS analysis; format: ADME, Microsome; conditions: read-out: Stability
[12] = Metabolic stability in mouse liver microsomes assessed as parent compound remaining in presence of NADPH at 0.5 uM measured after 60 mins by LC-MS/MS analysis; format: ADME, Microsome; conditions: read-out: Stability
[13] = Plasma protein binding in human measured after 5 hrs by LC-MS/MS analysis; format: ADME, cell-free; conditions: read-out: PPB (converted)
[14] = Plasma protein binding in mouse measured after 5 hrs by LC-MS/MS analysis; format: ADME, cell-free; conditions: read-out: PPB (converted)
[15] = Cmax in C57BL/6J mouse at 30 mg/kg, ip measured up to 24 hrs by LC-MS/MS analysis; format: ADME, organism-based; parameters: time < 24 hrs, dose 30 mg/kg, route ip; conditions: in vivo
[16] = Cmax in C57BL/6J mouse at 30 mg/kg, po measured up to 24 hrs by LC-MS/MS analysis; format: ADME, organism-based; parameters: dose 30 mg/kg, time < 24 hrs, route po; conditions: in vivo
[17] = Tmax in C57BL/6J mouse at 30 mg/kg, ip measured up to 24 hrs by LC-MS/MS analysis; format: ADME, organism-based; conditions: in vivo
[18] = Tmax in C57BL/6J mouse at 30 mg/kg, po measured up to 24 hrs by LC-MS/MS analysis; format: ADME, organism-based; conditions: in vivo
[19] = Half life in C57BL/6J mouse at 30 mg/kg, ip measured up to 24 hrs by LC-MS/MS analysis; format: ADME, organism-based; conditions: in vivo
[20] = Half life in C57BL/6J mouse at 30 mg/kg, po measured up to 24 hrs by LC-MS/MS analysis; format: ADME, organism-based; conditions: in vivo
Mus musculus [21] = experiment: Antiallodynic activity in ddY mouse assessed as inhibition of SNL-induced mechanical allodynia at 30 mg/kg, ip administered once daily for 7 days and measured at 1 hr post-last dosage; format: functional, organism-based; conditions: time 7.0 day
Mus musculus [22] = experiment: Antiallodynic activity in ddY mouse assessed as inhibition of SNL-induced mechanical allodynia at 30 mg/kg, ip administered once daily for 7 days and measured for 3 days after termination of repetitive drug administration; format: functional, organism-based; conditions: time 7.0 day

CCCc1cccc(C2CC(=O)Nc3nc(N)[nH]c(=O)c32)c1 (centres undefined)
Activity [1]: Active

Nc1nc2c(c(=O)[nH]1)C(c1cccc(Cl)c1)CC(=O)N2 (centres undefined)
Activity [1]: Active

CCOc1ccc(C2CC(=O)Nc3nc(N)[nH]c(=O)c32)cc1Br (centres undefined)
Activity [1]: Active

CCOc1cc(C2CC(=O)Nc3nc(N)[nH]c(=O)c32)ccc1OC (centres undefined)
Activity [1]: Active

Nc1nc2c(c(=O)[nH]1)C(c1ccc(F)c(F)c1)CC(=O)N2 (centres undefined)
Activity [1]: Active

CCCCc1cccc(C2CC(=O)Nc3nc(N)[nH]c(=O)c32)c1 (centres undefined)
Activity [1]: Active

CCCOc1ccc(C2CC(=O)Nc3nc(N)[nH]c(=O)c32)cc1OC (centres undefined)
Activity [1]: Active

Nc1nc2c(c(=O)[nH]1)C(c1cccc(Br)c1)CC(=O)N2 (centres undefined)
Activity [1]: Active

CCOc1ccc(C2CC(=O)Nc3nc(N)[nH]c(=O)c32)cc1OC (centres undefined)
Activity [1]: Active

CCOc1ccc(C2CC(=O)Nc3nc(N)[nH]c(=O)c32)cc1Cl (centres undefined)
Activity [1]: Active

CCOc1ccc(C2CC(=O)Nc3nc(N)[nH]c(=O)c32)cc1C (centres undefined)
Activity [1]: Active

COc1cccc(C2CC(=O)Nc3nc(N)[nH]c(=O)c32)c1 (centres undefined)
Activity [1]: Active

CCCOc1cccc(C2CC(=O)Nc3nc(N)[nH]c(=O)c32)c1 (centres undefined)
Activity [1]: Active

Nc1nc2c(c(=O)[nH]1)C(c1cccc(OC(F)(F)F)c1)CC(=O)N2 (centres undefined)
Activity [1]: Active | inhibition (Mus musculus [2]): Dde | IC50 [3]: 0.11 nM | Activity [3]: Dde | Activity (Mus musculus [4]): Active | Activity (Mus musculus [5]): Active | Activity (Mus musculus [6]): Active | solubility at 100 µM [7]: 93.3 µM (≈ 31.7 µg/mL) | Papp A→B at 2 h, 25 µM [8]: 16 nm/s | remaining at 10 min, 0.5 µM [9]: 95% | remaining at 10 min, 0.5 µM [10]: 91% | remaining at 1 h, 0.5 µM [11]: 92% | remaining at 1 h, 0.5 µM [12]: 93% | fraction unbound at 5 h [13]: 0.11 | fraction unbound at 5 h [14]: 0.298 | Cmax [15]: 40.6 µM | Cmax [16]: 20.8 µM | Tmax [17]: 1 h | Tmax [18]: 0.83 h | half-life [19]: 2.4 h | half-life [20]: 2.75 h | Activity (Mus musculus [21]): Active | Activity (Mus musculus [22]): Active

CCCOc1cc(C2CC(=O)Nc3nc(N)[nH]c(=O)c32)ccc1OC (centres undefined)
Activity [1]: Active

C=CCOc1ccc(C2CC(=O)Nc3nc(N)[nH]c(=O)c32)cc1OC (centres undefined)
Activity [1]: Active | inhibition (Mus musculus [2]): Dde | IC50 [3]: 1.48 nM | Activity [3]: Dde | Activity (Mus musculus [4]): Active | Activity (Mus musculus [5]): Active | Activity (Mus musculus [6]): Active | solubility at 100 µM [7]: 92.2 µM (≈ 31.6 µg/mL) | Papp A→B at 2 h, 25 µM [8]: 3 nm/s | remaining at 10 min, 0.5 µM [9]: 93% | remaining at 10 min, 0.5 µM [10]: 96% | remaining at 1 h, 0.5 µM [11]: 91% | remaining at 1 h, 0.5 µM [12]: 94% | fraction unbound at 5 h [13]: 0.304 | fraction unbound at 5 h [14]: 0.505 | Cmax [15]: 14.3 µM | Cmax [16]: 0.79 µM | Tmax [17]: 0.67 h | Tmax [18]: 0.5 h | half-life [19]: 2.19 h | half-life [20]: 1.72 h | Activity (Mus musculus [21]): Active

C=CCOc1cccc(C2CC(=O)Nc3nc(N)[nH]c(=O)c32)c1 (centres undefined)
Activity [1]: Active

CCc1cccc(C2CC(=O)Nc3nc(N)[nH]c(=O)c32)c1 (centres undefined)
Activity [1]: Active

CCOc1ccc(C2CC(=O)Nc3nc(N)[nH]c(=O)c32)cc1OCC (centres undefined)
Activity [1]: Active

CCOc1cccc(C2CC(=O)Nc3nc(N)[nH]c(=O)c32)c1 (centres undefined)
Activity [1]: Active | inhibition (Mus musculus [2]): Dde | Activity (Mus musculus [4]): Active | solubility at 100 µM [7]: 27.9 µM (≈ 8.38 µg/mL) | Papp A→B at 2 h, 25 µM [8]: 3 nm/s | remaining at 10 min, 0.5 µM [9]: 93% | remaining at 10 min, 0.5 µM [10]: 92% | remaining at 1 h, 0.5 µM [11]: 93% | remaining at 1 h, 0.5 µM [12]: 84% | fraction unbound at 5 h [13]: 0.345 | fraction unbound at 5 h [14]: 0.474 | Cmax [15]: 29.3 µM | Cmax [16]: 1.93 µM | Tmax [17]: 0.25 h | Tmax [18]: 0.25 h | half-life [19]: 2.29 h | half-life [20]: 1.32 h
